Results on 4 compounds are retold here after ChEMBL document CHEMBL1201862, “PubChem BioAssay data set” (2004).

Some test systems named below: OVCAR-8; Hs-578T; LOX IMVI; NCI-H460; TK-10; SW-620; HOP-62; MDA-MB-435; HCT-116; NCI/ADR-RES; UO-31; HT-29; A549; UACC-257; SF-268; SK-MEL-28; RPMI-8226; HOP-92; SK-OV-3; U-251.
Common to all, as to experiment: NCI-60 cell line screen, 48 h

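Each compound was tested at five concentrations against cells in 96-well plates for 48 hours. The concentration for 50% growth inhibition is given as GI50.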 The source made the active and inactive calls. No stated cut-off is given here; in the data, active = GI50 up to about 1.1 µM and inactive = higher.

For `CCC(Cc1cnc2nc(N)nc(N)c2n1)c1ccc(C(=O)NC(CCC(=O)O)C(=O)O)cc1` (stereo not given), the GI50 in the test on OVCAR-8 is 0.000624 µM (active); in the test on Hs-578T, 10.7 µM (inactive); in the test with LOX IMVI it was 0.247 nM (active); in the test on NCI-H460 it was 0.000315 µM (active); in the test on TK-10 it was > 100 µM (inactive); in the test on SW-620, 0.000176 µM (active). For the same compound, the GI50 in the test with HOP-62 was 0.00515 µM (active); in the test on MDA-MB-435, 0.000736 µM (active); in the test on HCT-116 it was < 0.0001 µM (active); in the test with NCI/ADR-RES, 0.000711 µM (active); with UO-31, 0.000382 µM (active); in the test with HT-29, 0.000327 µM (active). The values for the GI50 in the test with A549, with UACC-257 and in the test on SF-268 were 0.507 nM (active), 0.103 µM (active) and 0.00075 µM (active), respectively.

As for `Cc1ccc(/C=c2\cc3oc(=O)c4cccc(c4-3)c2=O)cc1`, the GI50 with OVCAR-8 is 97.7 µM (inactive); in the test with LOX IMVI it was 61400 nM (inactive); with NCI-H460, > 100 µM (inactive); with SK-MEL-28, > 100 µM (inactive); in the test on RPMI-8226, 31.2 µM (inactive); in the test with TK-10, > 100 µM (inactive). Besides, the GI50 in the test with HOP-92, in the test with SW-620, in the test on HOP-62, in the test with MDA-MB-435, in the test on HCT-116 and with NCI/ADR-RES was > 100 µM (inactive) each time. Moreover, the GI50 in the test with UO-31 is > 100 µM (inactive); in the test with HT-29, > 100 µM (inactive); in the test with UACC-257 it was > 100 µM (inactive); in the test on SK-OV-3 it was > 100 µM (inactive); in the test on SF-268, 59.3 µM (inactive); in the test on U-251, 63.7 µM (inactive).

Take `COc1cc2cc(c1Cl)N(C)C(=O)C[C@H](OC(=O)[C@H](C)N(C)C(C)=O)[C@]1(C)O[C@H]1[C@H](C)[C@@H]1C[C@@](O)(NC(=O)O1)[C@H](OC)/C=C/C=C(/C)C2`: the GI50 was 0.0218 µM (active) with OVCAR-8; 0.0219 µM (active) in the test on Hs-578T; 15.3 nM (active) in the test on LOX IMVI; 0.0157 µM (active) with NCI-H460; 0.0327 µM (active) in the test on SK-MEL-28; 0.0133 µM (active) in the test with RPMI-8226. Also, the GI50 with TK-10 is 0.238 µM (active); in the test with HOP-92, 0.0118 µM (active); with SW-620 it was 0.0165 µM (active); in the test on HOP-62, 0.0199 µM (active); in the test on HCT-116 it was 0.0143 µM (active); with NCI/ADR-RES it was 0.0975 µM (active). Also, the GI50 was 0.0944 µM (active) in the test with UO-31; 0.0164 µM (active) in the test with HT-29; 25.5 nM (active) with A549; 0.0373 µM (active) in the test on UACC-257; 0.0444 µM (active) in the test on SK-OV-3; 0.0176 µM (active) in the test with SF-268. In addition, the GI50 in the test on U-251 was 0.015 µM (active).

With `O=C(CCl)N1CCN(c2ccccc2)CC1`, the GI50 is 32.1 µM (inactive) with OVCAR-8; 32.8 µM (inactive) in the test on Hs-578T; 18.8 µM (inactive) in the test on NCI-H460; 18.3 µM (inactive) in the test on SK-MEL-28; 24.9 µM (inactive) in the test with RPMI-8226; 20 µM (inactive) in the test with TK-10. Moreover, the GI50 in the test on HOP-92 is 21.4 µM (inactive); in the test on SW-620 it was 23.4 µM (inactive); with HOP-62, 19.7 µM (inactive); in the test on HCT-116, 18.3 µM (inactive); in the test with NCI/ADR-RES, 44.1 µM (inactive); in the test on UO-31, 17.9 µM (inactive). Further, the GI50 in the test on HT-29 is 23.6 µM (inactive); in the test on A549, 22600 nM (inactive); with UACC-257 it was 23.2 µM (inactive); with SK-OV-3, 70.1 µM (inactive); with SF-268, 14.5 µM (inactive); in the test with U-251, 19.5 µM (inactive).
